Data as given in patent US9029553B2, “2-anilino nicotinyl linked 2-amino benzothiazole conjugates and process for the preparation thereof” (Council of Scientific & Industrial Research, priority 2011, dated 2015).
Entries after “also recorded” stand apart in the source; their conditions may differ.

Key:
[1] = tested on: HL-60 cells; test: Flow cytometric analysis of reactive oxygen species (DCFH-DA); assay type: cell-based, human; conditions: 1 μM, 24 hr, HL-60
Protocol: It was clear that these compounds were cytotoxic and induce apoptosis in HL-60 cells, now we have to found out the early events which were responsible for the induction of apoptosis like reactive oxygen species (ROS) or nitric oxide (NO) generation. Intracellular peroxide (ROS) in the cells was measured by DCFH-DA by using flow cytometry. Cells were incubated with tested compounds at 1 μM for 24 h in HL-60 cells and analyzed by flow cytometry after double staining with DCFH-DA (FIG. 7). Cells were analyzed for fluorescence intensity in FL1 vs. cell count. There was hardly any DCF fluorescence (ROS positive cells) in the untreated HL-60 cells, and this status remained unchanged when cells were incubated for 24 hr with compounds 7 and 8. […] Compounds 4 and 6 also induce the generation of peroxide in HL-60 cells (31 and 16% increase, respectively).

[2] = tested on: PC-3 cells; test: Fluorescent microscopic (DAPI) analysis of cell death; assay type: cell-based, human; conditions: PC-3, 1 μM, 24 h
Protocol: (§1) The mechanism of cell death was also studied in HL-60 and PC-3 cells by fluorescent microscopic studies. The PC-3 cells were treated with compd. 8 as in case of HL-60 cells. For fluorescent DAPI staining, air dried smears of cells on glass slides were fixed in absolute methanol at −20° C. for 20 min and stained with DAPI (Sigma) at 1 μg/ml at room temperature for 20 min in the dark and mounted with 90% glycerol in PBS and observed under fluorescent microscope (Olympus).
(§2) Morphological changes of HL-60 and PC-3 cells in response to this compound 8 were observed. The untreated cells were having large sized nuclei.

[3] = tested on: HL-60; test: as above; assay type: cell-based, human; conditions: HL-60, 1 μM, 24 h, data not shown
Protocol: as §1, §2

[4] = tested on: topoisomerase II; test: DNA topoisomerase-II inhibition assay; assay type: biochemical; conditions: 1 μM; etoposide 100 μM
Excerpt: DNA topoisomerases are nuclear enzymes capable of resolving the topology of DNA to allow its replication. So, proper relaxing is very important for successful replication cycle and thus for the cell survival. However, topoisomerases also serve as targets in the anticancer chemotherapy in which cell death serves an important purpose. Moreover, the topoisomerase targeting drugs can either be classified either topo posions, which act by stabilizing enzyme DNA cleavable complexes leading to DNA break or topo catalytic inhibitors, which act by stabilizing enzyme where both DNA strands remain intact and no DNA breaks occur. Importantly, all the topoisomerase inhibitors finally induce apoptosis. In the present study, all the five compounds 4-8 were first subjected to topoisomerase II inhibition assay.

[5] = tested on: Ehrlich Ascites Carcinoma (EAC); test: In vivo anticancer activity, Ehrlich ascites carcinoma; parameters: species or system Swiss mice; conditions: for No. of deaths / toxicity to animals: EAC mice
Protocol: Model: Ehrlich Ascites Carcinoma (EAC)
Ehrlich ascites carcinoma (EAC) cells were collected from the peritoneal cavity of the swiss mice harbouring 8-10 days old ascitic tumor. 1×10^7 EAC cells were injected intraperitoneally in Swiss mice selected for the experiment on day 0. The next day, animals were randomized and divided into different groups. The treatment groups contained 7 animals each and control group contained 10 animals. Treatment groups were treated with different doses of test substances intraperitoneally from day 1-9. One of the treatment group received 5-fluorouracil (20 mg/kg, i.p) and it served as positive control. The tumor bearing control group was similarly administered normal saline (0.2 ml, i.p.). On day 12, animals were sacrificed and ascitic fluid was collected from peritoneal cavity of each mouse for the evaluation of tumor growth. Percent tumor growth inhibition was calculated based on the total number of tumor cells present in the peritoneal cavity as on day 12 of the experiment using the following formula.

[6] = tested on: HL-60 cells; test: Annexin V-FITC flow cytometric analysis of apoptosis and necrosis; assay type: cell-based, human; conditions: 1 μM, 24 h
Protocol: During apoptosis an important biochemical change that take place in cells undergoing is flipping of phosphatidyl serine lipid from the inner leaflet of the cellular membrane to the outer one.
Annexin V a calcium dependent phospholipids binding protein has a high affinity for PS. […] Compounds 4-8 at 1 μM were treated with HL-60 cells were incubated for 24 h and the extent of apoptosis vs. necrosis was analyzed from the quadrant analysis of cell population with Annexin V-FITC. Both the apoptotic and post apoptotic cell populations increased in HL-60 cells.

[7] = tested on: HL-60; test: MTT inhibition of cell proliferation; assay type: cell-based; conditions: Homo sapiens, 48 h
Excerpt: (§3) In order to determine the mode of action of cell death in cancer cells, first we explored the cytotoxic potential of different structural analogs of benzothiazoles on different human cancer cell lines. […] These compounds have limited or no cytotoxicity to cervical cancer SiHa, HeLa cells, breast cancer MCF-7 cells and colon cancer HCT-15 cells.

[8] = tested on: SiHa; test: MTT inhibition of cell proliferation; assay type: cell-based; conditions: Homo sapiens, 48 h
Excerpt: as §3

[9] = tested on: MCF-7; test: MTT inhibition of cell proliferation; assay type: cell-based; conditions: Homo sapiens, MCF7, 48 h
Excerpt: as §3

[10] = tested on: HCT-15; test: MTT inhibition of cell proliferation; assay type: cell-based; conditions: Homo sapiens, 48 h
Excerpt: as §3

[11] = tested on: Hela; test: MTT inhibition of cell proliferation; assay type: cell-based; conditions: Homo sapiens, 48 h
Excerpt: as §3

[12] = tested on: normal monkey kidney CV-1 cells; test: MTT cytotoxicity in normal cells; assay type: cell-based; conditions: Primates
Protocol: These compounds were also evaluated for their cytotoxic potential in normal cells and for these purpose their IC50 value were also determine in normal monkey kidney CV-1 cells by using MTT method. The ratios of normal to cancer cells IC50 value were ranges from 10-1000 times (Table 5).

[13] = tested on: RPMI-8226; test: NCI SRB GI50 screen; assay type: cell-based; conditions: Homo sapiens, Leukemia, 48 hrs exposure, read-out: Growth Inhibition GI50 RPMI-8226
Protocol: 2-Anilino nicotinyl linked 2-amino benzothiazole conjugates of formula 9-12 were tested against fifty nine human cancer cell lines derived from nine cancer types (leukemia, non-small cell lung cancer, colon cancer, CNS cancer, melanoma, ovarian cancer, renal cancer, prostate cancer and breast cancer) as per NCI protocol. For each compound, dose response curves for individual cell lines were measured at a minimum of five concentrations at 10 fold dilutions. A protocol of 48 hrs continuous drug exposure was used, and a sulforhodamine B (SRB) protein assay was used to estimate cell viability or growth.

O=C(Nc1nc2ccc([N+](=O)[O-])cc2s1)c1cccnc1Nc1cc(F)c(F)c(F)c1 [Compound 8, N3-(6-nitro-1,3-benzothiazol-2-yl)-2-[(3,4,5-trifluorophenyl)amino]-3-pyridine carboxamide]
DCF fluorescence (ROS positive cells), in words [1]: unchanged
nuclear morphology (DAPI) [2]: fragmentatation of nuclei due to apoptosis; also recorded: condensation and fragmentation of nuclei
nuclear morphology (DAPI) [3]: fragmentatation of nuclei due to apoptosis
topoisomerase-II inhibition (DNA relaxation) [4]: more potent effect relative to etoposide; also recorded: maximum inhibition
Growth Inhibition (%) ([5]; 0.1 mg/kg i.p. day 1-9, read day 12): 10.98%
No. of deaths / toxicity to animals ([5]; 0.1 mg/kg i.p.): 0/7
Growth Inhibition (%) ([5]; 0.3 mg/kg i.p. day 1-9, read day 12): 53.15%
No. of deaths / toxicity to animals ([5]; 0.3 mg/kg i.p.): 0/7
Growth Inhibition (%) ([5]; 0.4 mg/kg i.p. day 1-9, read day 12): Intolerable
No. of deaths / toxicity to animals ([5]; 0.4 mg/kg i.p.): deaths of all the seven animals
No. of deaths / toxicity to animals ([5]; 0.4 mg/kg i.p., listed as Comp 8): 7/7
Growth Inhibition (%) ([5]; 0.5 mg/kg i.p. day 1-9, read day 12): Intolerable
No. of deaths / toxicity to animals ([5]; 0.5 mg/kg i.p.): 7/7
Growth Inhibition (%) ([5]; 2 mg/Kg i.p. day 1-9, read day 12): Intolerable
No. of deaths / toxicity to animals ([5]; 2 mg/Kg i.p.): 7/7
Growth Inhibition (%) ([5]; 5 mg/Kg i.p. day 1-9, read day 12): Intolerable
No. of deaths / toxicity to animals ([5]; 5 mg/Kg i.p.): 7/7
Growth Inhibition (%) ([5]; 20 mg/Kg i.p. day 1-9, read day 12): Intolerable
No. of deaths / toxicity to animals ([5]; 20 mg/Kg i.p.): 7/7
apoptotic cells (Annexin V-FITC) [6]: around 70%
IC50 [7]: 0.08 µM
IC50 [8]: 36 µM
IC50 [9]: > 100 µM
IC50 [10]: > 100 µM
IC50 [11]: > 100 µM
IC50 [12]: > 100 µM

COc1ccc2nc(NC(=O)c3cccnc3Nc3cc(OC)c(OC)c(OC)c3)sc2c1 [Compound 12, N-3-(6-methoxy-1,3-benzothiazol-2-yl)-2-(3,4,5-trimethoxyanilino) nicotinamide]
GI50 [13]: 9.94 µM
